How the values were obtained:
[1] = molecular target: T1, YAP association with TEAD1-4, SMAD7, p73, FOS, TBXS (Homo sapiens, UniProt P46937); experiment: HA-YAP1 immunoprecipitation from LN229 cells, immunoblot for TEAD1-4 and other transcription factors; type: cell-based; details: LN229 cells expressing HA-YAP, 18 h
T1 construct: expressed in transfected cells
Procedure: (§1) Levels of total YAP were determined via ELISA. […] Immunoprecipitates were immunoblotted for the indicated proteins. […] Cells were treated with the indicated concentrations of inhibitor for 18 h and mRNA extracted for real time RT-PCR analyses. Measurements were performed in quadruplicate and means and+S.D. are shown. […] Cells were treated with (+) or without (−) NSC682769 (100 nM, 18 h) and harvested and separated into cytoplasmic and nuclear cellular fractions. Cytoplasmic versus nuclear material was subsequently immunoblotted for the indicated proteins. […] Values in top right corner of panels correspond to the percentage of nuclear localized YAP. […]
(§2) Protein and mRNA analyses, immunoprecipitation, in vitro bead-coupled inhibitor binding assays and HPLC analyses. […] Antigen-antibody complexes were detected using appropriate horseradish peroxidase-conjugated secondary antibodies (GE Healthcare) and enhanced chemiluminescence (Amersham ECL Prime). […] For quantitative RT-PCR, extraction of RNA was performed using Trizol® (Life Technologies). Total RNA was then quantified and integrity assessed using an Agilent 2100 Bioanalyzer (Agilent Technology). […] SYBR® Green quantitative PCR (Millipore Sigma) was performed in triplicate in 96-well optical plates on an ABI Prism 7000 Sequence Detection System (Life Technologies) according to the manufacturer's instructions. […]

CTGF & Cyr61 expression = experiment: Real time RT-PCR of YAP-target genes CTGF and Cyr61 in GBM cells; type: cell-based, human; details: LN229 and GBM39 cells, 18 h
Procedure: as §1, §2

YAP [2] = molecular target: T2, YAP (Homo sapiens, UniProt P46937); experiment: Western blot of YAP and TEAD levels in GBM lines; type: cell-based; details: LN229, T98G, GBM39; 18 h, increasing concentrations
T2 construct: endogenous in cells; host or cells: LN229, T98G, GBM39
Procedure: as §1, §2

YAP [3] = experiment: Western blot of YAP and TEAD levels in GBM lines; type: cell-based, human; details: LN229, T98G, GBM39; 18 h, increasing concentrations
Procedure: as §1, §2

T1 sequence (P46937 whole entry): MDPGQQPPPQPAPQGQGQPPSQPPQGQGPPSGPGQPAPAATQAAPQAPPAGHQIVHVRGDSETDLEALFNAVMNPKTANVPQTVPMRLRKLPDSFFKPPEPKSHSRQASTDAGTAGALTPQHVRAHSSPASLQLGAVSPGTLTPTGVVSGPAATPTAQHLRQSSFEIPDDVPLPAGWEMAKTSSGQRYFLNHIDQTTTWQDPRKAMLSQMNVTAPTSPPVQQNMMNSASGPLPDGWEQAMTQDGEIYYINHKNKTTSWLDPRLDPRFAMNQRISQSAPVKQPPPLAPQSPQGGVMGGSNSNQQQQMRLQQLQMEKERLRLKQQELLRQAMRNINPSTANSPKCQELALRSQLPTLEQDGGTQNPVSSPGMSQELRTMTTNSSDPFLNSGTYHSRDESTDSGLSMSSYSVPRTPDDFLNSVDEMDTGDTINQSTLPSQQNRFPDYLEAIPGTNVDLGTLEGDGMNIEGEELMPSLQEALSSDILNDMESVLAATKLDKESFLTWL

**Q.** With `COc1ccc(-c2cc(-c3ccccc3)nc3c2CC(=O)Nc2ccccc2-3)cc1OC` [NSC682769] as the compound, how does the “Binding of TEAD1-4 to YAP” value [1] read?
**A.** inhibited the binding of the four TEAD members to YAP

**Q.** What about the “SMAD7, p73, FOS or TBXS association with YAP” value [1] of the same compound?
**A.** no appreciable effects

**Q.** And the “CTGF and Cyr61 transcripts” value (CTGF & Cyr61 expression)?
**A.** downregulated

**Q.** And the YAP levels (YAP [2])?
**A.** decreased

**Q.** And the TEAD levels (YAP [3])?
**A.** unaffected
